Test results published in patent US8168647B2, “Vinblastine derivatives, their preparation, use and pharmaceutical compositions comprising the said derivatives” (Shanghai Institute of Materia Medica Chinese Academy of …, priority 2007, dated 2012).
pIC50: −log10 of the molar value. Counter-ions that a name gives are not always drawn. Like-named read-outs stand apart in the source and are kept apart here. Marks after values point to notes of the source that are not given here.

What was measured:
[1] = system: human cervical carcinoma cell line Hela; test: In vitro cytotoxicity assay, Sulforhodamine B (SRB), Hela; assay type: cell-based; conditions: for pIC50: SRB assay, 72 hours incubation, ditartrate of all compounds used, read-out: Hela (IC50); for IC50: 72 h, read-out: Hela (IC50, nM)
sarcoma 180 = test: In vivo antitumor assay on Sarcoma 180 (S180) in mice; conditions: for inhibition in vivo at 10 mg/kg / inhibition in vivo at 20 mg/kg / inhibition in vivo at 40 mg/kg: Mus musculus, Sarcoma-180, iv; for inhibition in vivo at 10 mg/kg: read-out: Inhibition rate %, 10 mg/kg, iv, d 1, 4
[2] = system: human non-small cell lung cancer cell line A-549; test: In vitro cytotoxicity assay, Sulforhodamine B (SRB), A-549; assay type: cell-based; conditions: for pIC50: SRB assay, 72 hours incubation, ditartrate of all compounds used, read-out: A549 (IC50); for IC50: A549, 72 h, read-out: A549 (IC50, nM)
[3] = read-out: Inhibition rate %, 20 mg/kg, iv d 1
[4] = read-out: Inhibition rate %, 20 mg/kg, iv, d 1, 4
[5] = read-out: Inhibition rate %, 40 mg/kg, iv, d 1, 4

SMILES | Average weight (g) At sacrifice (sarcoma 180; 10 mg/kg, iv, d 1, 4) [g] | Tumor Weight (g) X ± SD (sarcoma 180; 10 mg/kg, iv, d 1, 4) [g] | IC50 ([1]; Homo sapiens, HeLa) [nM] | inhibition in vivo at 10 mg/kg (sarcoma 180) [%] | cell-based efficacy, inhibition of tumor cell proliferation (in words) [2] | IC50 ([2]; Homo sapiens) [nM] | Average weight (g) At sacrifice (sarcoma 180; 20 mg/kg, iv, d 1, 4) [g] | Tumor Weight (g) X ± SD (sarcoma 180; 20 mg/kg, iv, d 1, 4) [g] | Average weight (g) At sacrifice (sarcoma 180; 40 mg/kg, iv, d 1, 4) [g] | Tumor Weight (g) X ± SD (sarcoma 180; 40 mg/kg, iv, d 1, 4) [g] | inhibition in vivo at 20 mg/kg (sarcoma 180; [4]) [%] | inhibition in vivo at 40 mg/kg (sarcoma 180; [5]) [%] | other results
CCC1=C[C@@H]2CN(CCc3c([nH]c4ccccc34)[C@@](C(=O)OC)(c3cc4c(cc3OC)N(C)[C@H]3[C@@](O)(C(=O)OC)[C@H](OC(C)=O)[C@]5(CC)C=CCN6CC[C@]43[C@@H]65)C2)C1 [Anhydrovinblastine tartrate, anhydrovinblastine tartrate, reference compound] | 27.9 | 0.49 ± 0.10 | – | – | – | – | – | – | – | – | – | – | pIC50 [1]: 7.40; Inhibition rate % (sarcoma 180; 10 mg/kg, iv, d 1, 4): 69.4* %; pIC50 [2]: 7.22
CCC(=O)NCC1(O)[C@H](OC(C)=O)[C@]2(CC)C=CCN3CC[C@@]4(c5cc([C@@]6(C(=O)OC)C[C@@H]7C=C(CC)CN(CCc8c6[nH]c6ccccc86)C7)c(OC)cc5N(C)[C@@H]14)[C@@H]32 (stereo partly drawn) [BM27] | 21.4 | 0.25 ± 0.06 | 13.4 | 84.4 | excellent cell-based efficacy | 42.9 | – | – | – | – | – | – | Average weight (g) At sacrifice (sarcoma 180; 20 mg/kg, iv d 1): 20.7 g; Tumor Weight (g) X ± SD (sarcoma 180; 20 mg/kg, iv d 1): 0.16 ± 0.03 g; inhibition in vivo at 20 mg/kg (sarcoma 180; [3]): 90%
CCC1=C[C@@H]2CN(CCc3c([nH]c4ccccc34)[C@@](C(=O)OC)(c3cc4c(cc3OC)N(C)[C@H]3C(O)(CNC(=O)C5CC5)[C@H](OC(C)=O)[C@]5(CC)C=CCN6CC[C@]43[C@@H]65)C2)C1 (stereo partly drawn) [BM33] | 22.2 | 0.30 ± 0.05 | 17 | 81.3 | excellent cell-based efficacy | 26.4 | – | – | – | – | – | – | Average weight (g) At sacrifice (sarcoma 180; 20 mg/kg, iv d 1): 23.9 g; Tumor Weight (g) X ± SD (sarcoma 180; 20 mg/kg, iv d 1): 0.18 ± 0.02 g; inhibition in vivo at 20 mg/kg (sarcoma 180; [3]): 88.8%
CCC1=C[C@@H]2CN(CCc3c([nH]c4ccccc34)[C@@](C(=O)OC)(c3cc4c(cc3OC)N(C)[C@H]3C(O)(CNC(=O)c5ccc6c(c5)OCO6)[C@H](OC(C)=O)[C@]5(CC)C=CCN6CC[C@]43C65)C2)C1 (stereo partly drawn) [BM47] | 25.3 | 0.67 ± 0.07 | 19 | 58.1 | excellent cell-based efficacy | 14.4 | – | – | – | – | – | – | Average weight (g) At sacrifice (sarcoma 180; 20 mg/kg, iv d 1): 23.3 g; Tumor Weight (g) X ± SD (sarcoma 180; 20 mg/kg, iv d 1): 0.54 ± 0.17 g; inhibition in vivo at 20 mg/kg (sarcoma 180; [3]): 66.3%
CCC1=C[C@@H]2CN(CCc3c([nH]c4ccccc34)[C@@](C(=O)OC)(c3cc4c(cc3OC)N(C)[C@H]3C(O)(CNC(=O)OCC(C)C)[C@H](OC(C)=O)[C@]5(CC)C=CCN6CC[C@]43[C@@H]65)C2)C1 (stereo partly drawn) [BM53] | 25.4 | 0.24 ± 0.09 | 7.1 | 85 | excellent cell-based efficacy | 13.7 | – | – | – | – | – | – | –
CCC1=C[C@@H]2CN(CCc3c([nH]c4ccccc34)[C@@](C(=O)OC)(c3cc4c(cc3OC)N(C)[C@H]3C(O)(CNC(=O)OCC5CC5)[C@H](OC(C)=O)[C@]5(CC)C=CCN6CC[C@]43[C@@H]65)C2)C1 (stereo partly drawn) [BM57] | 25.2 | 0.26 ± 0.07 | 13.2 | 83.8 | excellent cell-based efficacy | 60.6 | – | – | – | – | – | – | –
CCC1=C[C@@H]2CN(CCc3c([nH]c4ccccc34)[C@@](C(=O)OC)(c3cc4c(cc3OC)N(C)[C@H]3[C@@]5(CNC(=O)O5)[C@H](OC(C)=O)[C@]5(CC)C=CCN6CC[C@]43[C@@H]65)C2)C1 [BM74] | – | – | 342 | – | – | 710 | – | – | – | – | – | – | –
CC[C@]12C=CCN3CC[C@@]4(c5cc([C@@]6(C(=O)OC)C[C@@H]7C[C@@H](C(C)(F)F)CN(CCc8c6[nH]c6ccccc86)C7)c(OC)cc5N(C)[C@H]4C(O)(COC(C)=O)[C@@H]1OC(C)=O)[C@@H]32 (stereo partly drawn) [BM75] | – | – | > 1000 | – | – | > 1000 | 30.9 | 1.53 ± 0.56 | 33.3 | 1.85 ± 0.32 | 4.4 | 0 | –
CC[C@]12C=CCN3CC[C@@]4(c5cc([C@@]6(C(=O)OC)C[C@@H]7C[C@@H](C(C)(F)F)CN(CCc8c6[nH]c6ccccc86)C7)c(OC)cc5N(C)[C@H]4C(O)(COC(=O)C4CC4)[C@@H]1OC(C)=O)[C@@H]32 (stereo partly drawn) [BM76] | – | – | > 1000 | – | – | > 1000 | 31.4 | 1.20 ± 0.09 | 31.8 | 1.25 ± 0.45 | 25 | 21.9 | –
CC[C@]12C=CCN3CC[C@@]4(c5cc([C@@]6(C(=O)OC)C[C@@H]7C[C@@H](C(C)(F)F)CN(CCc8c6[nH]c6ccccc86)C7)c(OC)cc5N(C)[C@H]4C(O)(CNC(C)=O)[C@@H]1OC(C)=O)[C@@H]32 (stereo partly drawn) [BM77] | – | – | > 1000 | – | – | > 1000 | – | – | – | – | – | – | –
CCC(=O)NCC1(O)[C@H](OC(C)=O)[C@]2(CC)C=CCN3CC[C@@]4(c5cc([C@@]6(C(=O)OC)C[C@@H]7C[C@@H](C(C)(F)F)CN(CCc8c6[nH]c6ccccc86)C7)c(OC)cc5N(C)[C@@H]14)[C@@H]32 (stereo partly drawn) [BM78] | – | – | > 1000 | – | – | > 1000 | 30.1 | 0.76 ± 0.29 | 29.0 | 0.36 ± 0.11 | 52.5 | 77.5 | Average weight (g) At sacrifice (sarcoma 180; 40 mg/kg, iv d 1): 28.8 g; Tumor Weight (g) X ± SD (sarcoma 180; 40 mg/kg, iv d 1): 0.48 ± 0.15 g; inhibition in vivo at 40 mg/kg (sarcoma 180; read-out: Inhibition rate %, 40 mg/kg, iv d 1): 70%; antitumor activity in vivo (in words) (sarcoma 180; S180 in mice, iv): strong antitumor activity in vivo
CC[C@]12C=CCN3CC[C@@]4(c5cc([C@@]6(C(=O)OC)C[C@@H]7C[C@@H](C(C)(F)F)CN(CCc8c6[nH]c6ccccc86)C7)c(OC)cc5N(C)[C@H]4C(O)(CNC(=O)OC)[C@@H]1OC(C)=O)[C@@H]32 (stereo partly drawn) [BM79] | – | – | > 1000 | – | – | > 1000 | 33.0 | 1.47 ± 0.15 | 29.5 | 0.84 ± 0.49 | 8.1 | 47.5 | –
CC[C@]12C=CCN3CC[C@@]4(c5cc([C@@]6(C(=O)OC)C[C@@H]7C[C@@H](C(C)(F)F)CN(CCc8c6[nH]c6ccccc86)C7)c(OC)cc5N(C)[C@H]4C(O)(CNC(=O)OCC(C)C)[C@@H]1OC(C)=O)[C@@H]32 (stereo partly drawn) [BM80] | – | – | > 1000 | – | – | > 1000 | 34.5 | 1.55 ± 0.34 | 32.5 | 1.58 ± 0.12 | 3.1 | 1.2 | –
CC[C@]1(O)C[C@@H]2CN(CCc3c([nH]c4ccccc34)[C@@](C(=O)OC)(c3cc4c(cc3OC)N(C)[C@H]3[C@@](O)(C(=O)OC)[C@H](OC(C)=O)[C@]5(CC)C=CCN6CC[C@]43[C@@H]65)C2)C1 [Vinblastine sulfate, vinblastine sulfate, reference compound] | – | – | 2.5 | – | – | 3.4 | – | – | – | – | – | – | –
CC[C@]1(O)C[C@H]2CN(CCc3c([nH]c4ccccc34)[C@@](C(=O)OC)(c3cc4c(cc3OC)N(C=O)[C@H]3[C@@](O)(C(=O)OC)[C@H](OC(C)=O)[C@]5(CC)C=CCN6CC[C@]43[C@@H]65)C2)C1 [Vincristine sufate, reference compound] | – | – | – | – | – | – | – | – | – | – | – | – | pIC50 ([1]; Homo sapiens, HeLa): 7.95; pIC50 ([2]; Homo sapiens, A549): 7.60
